Assay results published in patent publication US20050032750A1, “Treating androgen deficiency in female (ADIF)-associated conditions with SARMS” (priority 2003, published 2005).

What was measured:
castrated male rats = test: Androgenic and anabolic effects in castrated male rats; assay type: in vivo, rat
[1] = system: myosin heavy chain (MHC) IIb mRNA; test: Myosin heavy chain (MHC) IIb mRNA expression in masseter muscle by RT-PCR; assay type: in vivo, rat; conditions: intact female rats, untreated control = 100%
Description: MHC is the predominant protein in skeletal muscle encoded by a multigene family expressed in a tissue-specific and developmentally regulated manner. In steady state, MRNA expression usually parallels the pattern of MHC protein expression. Because transcription of MHC MRNA occurs in advance of MHC protein translation, and the increased sensitivity of RT-PCR compared to western blotting, rapid changes in mRNA expression can be detected and used to analyze the subtle dynamic effects of muscle anabolism.
The masseter muscle dissected from untreated intact female rats was set as the control level (representing 100%) of MHC IIb expression (FIG. 1A). Intact female rats treated with androgens were evaluated against the untreated controls for the effect of treatment on MHC IIb from masseter.

[2] = system: ovariectomized female rats; test: Bone mineral content by whole body DEXA after ovariectomy (Example 2); assay type: in vivo, rat; conditions: OVX female rats, 30 day treatment period
[3] = system: ovariectomized (OVX) rat model of postmenopausal bone loss; test: Whole body DEXA analysis (BMD, percent fat mass, body weight) in OVX rat model; assay type: in vivo; conditions: for change in whole body BMD between day 0 and day 120: 120 days; for body weight gain: day 0 to 120
Protocol: (§1) One hundred twenty female Sprague-Dawley rats were purchased from Harlan (Indiapolis, Ind.). The animals were housed three per cage and were allowed free access to tap water and commercial rat chow (Harlan Teklad 22/5 rodent diet—8640). During the course of the study, the animals were maintained on a 12 hr light:dark cycle. This study was reviewed and approved by the Institutional Laboratory Care and Use Committee of The Ohio State University. […] Dosing solutions were prepared daily by dissolving drug in dimethyl sulfoxide (DMSO) and diluting in polyethylene glycol 300 (PEG 300). All doses were administered for 120 days via daily subcutaneous injections in a volume of 0.20 ml.
Total body bone mineral density (BMD), percent fat mass (FM), and body weight (BW) were determined by dual energy x-ray absorptiometry (DEXA) (GE, Lunar Prodigy™) using the small animal software (Lunar enCORE, version 6.60.041) on days 0 and 120. Total body data was obtained by selecting an area encompassing the entire animal as the region of interest during data processing. For scanning, the animals were anesthetized with ketariine:xylazine (87:13 mg/kg).
(§2) The results were analyzed using Tukey's honestly significant difference method in a one-way analysis of variance and expressed as mean ±S.E.M. Significance was reported when P<0.05. SPSS 11.5.0 (Chicago, Ill.) was used to analyze the results.

[4] = system: ovariectomized (OVX) rat model of postmenopausal bone loss; test: Femoral pQCT analysis of mid-shaft cortical content; assay type: in vivo; conditions: 120 days
Protocol: as §1
(§3) The right femurs from groups 5, 6, 7, 9, 10, and 12 were sent to Skeletech, Inc. (Bothell, Wash.) for pQCT analysis and biomechanical testing. The femur was subject to pQCT scan using a Stratec XCT RM and associated software (Stratec Medizintechnik GmbH, Pforzheim, Germany. Software version 5.40 C). The femur was scanned at the mid-shaft. The position was verified using scout views and scan results from one 0.5 mm slice perpendicular to the long axis of the femur. Cortical bone mineral content was analyzed. After pQCT analysis, the de-fleshed whole femur was used in the three point bending test. The femur was placed on the lower supports of a three point bending fixture with anterior side facing downward in an Instron Mechanical Testing Machine (Instron 4465 retrofitted to 5500). The upper loading device was aligned to the center of the femoral shaft. The load was applied at a constant displacement rate of 6 mm/min until the femur broke. The location of maximal load was selected manually and values were calculated by machine's software (Merlin II, Instron). Maximum load was measured directly by the mechanical testing machine. The length between two supports was set to 14mm.
as §2

[5] = system: ovariectomized (OVX) rat model of postmenopausal bone loss; test: Ex vivo DEXA analysis of L2-L4 vertebrae BMD; assay type: in vivo; conditions: 120 days
Protocol: as §1
Immediately following the whole body DEXA scan on day 120, groups 1-11 were sacrificed, and the lumbar vertebrae, femurs, and tibia were excised and cleared of soft tissue. Group 12 was sacrificed at day 210. The excised bones were scanned through a 3 in deep room temperature water bath, to simulate soft tissue and prevent beam-hardening effects. The L2-L4 vertebrae were selected as a region of interest and analyzed for BMD by DEXA.
as §2

[6] = system: ovariectomized (OVX) rat model of postmenopausal bone loss; test: Femoral three point bending test (maximum load); assay type: in vivo; conditions: OVX rats, 120 days
Protocol: as §1, §3
The results were analyzed using Tukey's honestly significant difference method in a one-way analysis of variance and expressed as mean ±S.E.M. Significance was reported when P<0.05. […]

SMILES: CC(=O)Nc1ccc(OC[C@](C)(O)C(=O)Nc2ccc([N+](=O)[O-])c(C(F)(F)F)c2)cc1 [Compound VI, S-3-(4-acetylamino-phenoxy)-2-hydroxy-2-methyl-N-(4-nitro-3-trifluoromethyl-phenyl)-propionamide]
- prostate restored, % of intact animals (castrated male rats): 34%
- seminal vesicles restored, % of intact animals (castrated male rats): 28%
- transcription of MHC type IIb, % of untreated control [1]: 137%
- bone mineral content compared with intact control or placebo-treated groups [2]: maintained and improved the bone mineral content
- change in whole body BMD between day 0 and day 120 ([3]; OVX rats, 0.1 mg/day sc): not significantly different from OVX controls
- percent body fat at day 120 ([3]; OVX rats, 3.0 mg/day): not different from intact controls
- body weight gain ([3]; OVX rats, 3.0 mg/day): gained more weight than the other groups
- percent fat mass at day 120 ([3]; OVX rats, 0.1-3.0 mg/day): dose dependent decrease in percent fat mass
- body weight gain ([3]; OVX rats, 0.1-3.0 mg/day): dose-dependent trend in body weight gain
- change in whole body BMD between day 0 and day 120 ([3]; OVX rats, doses greater than 0.1 mg/day sc): prevent the loss of whole body BMD
- mean percent fat mass at day 120 ([3]; intact rats, 1 mg/day): lower in intact Compound VI treated animals than intact controls
- Cortical Content (CC) of mid-shaft femur ([4]; OVX rats, 1.0 mg/day): completely prevent the loss in CC
- Cortical Content (CC) of mid-shaft femur ([4]; OVX rats, 3.0 mg/day): increase the CC in OVX animals above that of intact animals
- Cortical Content (CC) of mid-shaft femur ([4]; intact rats, 1 mg/day): not different from intact controls
- L2-L4 BMD ([5]; OVX rats, 0.5 and 3.0 mg/kg dose groups): significantly higher BMD than the OVX control group
- L2-L4 BMD ([5]; OVX rats, greater than 0.3 mg/day): not significantly different from intact controls
- femur biomechanical strength (maximum load) ([6]; 1.0 mg/day): prevent the loss of bone strength
- femur biomechanical strength (maximum load) ([6]; 3.0 mg/day): increase in maximum load

SMILES: C[C@]12CCC(=O)C[C@@H]1CC[C@@H]1[C@@H]2CC[C@]2(C)[C@@H](O)CC[C@@H]12 [DHT, dihydrotestosterone, reference compound]
- change in whole body BMD between day 0 and day 120 ([3]; OVX rats, DHT 1 mg/day sc): not significantly different from OVX controls
- change in whole body BMD between day 0 and day 120 ([3]; intact rats, DHT 1 mg/day sc): prevented the age related increase in BMD
- Cortical Content (CC) of mid-shaft femur ([4]; OVX rats, DHT 1 mg/day): partially prevented the loss in CC, these results were not significant
- L2-L4 BMD ([5]; OVX rats, DHT 1 mg/day): only able to partially maintain the L2-L4 BMD
- L2-L4 BMD ([5]; intact rats, DHT 1 mg/day): caused a reduction in L2-L4 BMD
- femur biomechanical strength (maximum load) ([6]; DHT 1 mg/day): prevent the loss in bone strength

SMILES: CCC(=O)O[C@H]1CC[C@H]2[C@@H]3CCC4=CC(=O)CC[C@]4(C)[C@H]3CC[C@]12C [testosterone propionate, reference compound]
- transcription of MHC type IIb, % of untreated control [1]: 133%
